Experimental findings from patent US20150004134A1, “TREATMENT OF CANCER WITH HETEROCYCLIC INHIBITORS OF GLUTAMINASE” (Calithera Biosciences, Inc., priority 2012, published 2015) are described below.

Test [1] addresses T1, recombinant form of Glutaminase 1 (GAC) (Homo sapiens, UniProt O94925).
T1 sequence (O94925 137-598 isoform O94925-3 limits assumed): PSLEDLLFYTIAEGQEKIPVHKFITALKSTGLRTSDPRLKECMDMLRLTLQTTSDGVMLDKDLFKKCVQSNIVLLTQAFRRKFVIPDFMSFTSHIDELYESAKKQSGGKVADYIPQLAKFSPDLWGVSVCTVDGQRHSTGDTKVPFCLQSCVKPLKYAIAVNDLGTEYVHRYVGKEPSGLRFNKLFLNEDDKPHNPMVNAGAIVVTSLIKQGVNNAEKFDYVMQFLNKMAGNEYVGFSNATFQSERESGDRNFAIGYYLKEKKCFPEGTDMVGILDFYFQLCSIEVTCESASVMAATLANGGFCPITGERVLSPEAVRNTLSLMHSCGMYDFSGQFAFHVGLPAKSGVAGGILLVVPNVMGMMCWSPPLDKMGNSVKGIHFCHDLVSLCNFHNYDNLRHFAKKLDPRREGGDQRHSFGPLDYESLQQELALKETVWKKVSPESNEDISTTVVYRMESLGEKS
The experiment in a line: Recombinant Enzyme Assay - Time Dependence (60 min preincubation). It is filed as biochemical. The following applies: read-out: GAC Delta N2 IC50 60 min preinc. The procedure: The enzyme/compound mix was sealed with sealing foil (USA Scientific) and allowed to incubate, with mild agitation, for 60 minutes at 20° C. Enzymatic reaction was started with the addition of 50 μL of substrate solution (50 mM Tris-HCl pH 8.0, 0.2 mM EDTA, 150 mM K2HPO4, 0.1 mg/ml BSA, 1 mM DTT, 20 mM L-glutamine, 2 mM NAD^+, and 10 ppm antifoam) and read in a Molecular Devices M5 plate reader at 20° C. The plate reader was configured to read absorbance (=340 nm) in kinetic mode for 15 minutes. Data was recorded as milli-absorbance units per minute and slopes were compared to a control compound and a DMSO-only control on the same plate. Compounds with slopes less than the DMSO control were considered inhibitors and plate variability was assessed using the control compound.

Test [2] deals with P493-6 (myc "on") cells. The test is described as follows: Cell Proliferation Assay. It counts as cell-based. The following applies: P493-6, 72 h, read-out: Cell prolif P493 72 h IC50, P493-6 cells, 72 h. In outline: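 Read-out: either Cell Titer Glo or Guava Viacount flow analysis after 72 h compound treatment of myc-on P493-6 cells (10,000/well, RPMI with 10% FBS) at 37 °C. DMSO held at 0.5% final.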

`CC(=O)Nc1ccc(CCCCc2nnc(NC(=O)Cc3cccc(CN)c3)s2)nn1` [Compound 425]: the IC50 in test [1] is 86 nM; in test [2], 15 nM.

With `CC(C)(C)OC(=O)NCCc1cccc(CC(=O)Nc2nnc(CCCCc3ccc(NC(=O)Cc4ccccc4)nn3)s2)c1` [Compound 429], the IC50 in test [1] was 4 nM; in test [2], 7 nM.

With `CN(C)CC(=O)Nc1ccc(CC(=O)Nc2nnc(CCCCc3ccc(NC(=O)Cc4ccccc4)nn3)s2)cc1` [Compound 430], the IC50 in test [1] worked out at 9 nM; in test [2] it was 27 nM.

Regarding `CC(=O)NCc1cccc(CC(=O)Nc2nnc(CCCCc3ccc(NC(=O)Cc4ccccc4)nn3)s2)c1` [Compound 431], the IC50 in test [1] came to 7 nM; in test [2], 26 nM.

For the compound `CC(C)CC(=O)NCc1cccc(CC(=O)Nc2nnc(CCCCc3ccc(NC(=O)Cc4ccccc4)nn3)s2)c1` [Compound 433], the values for the IC50 in test [1] and in test [2] were 2 nM and 7 nM, respectively.

As for `CN(C)CC(=O)NCc1cccc(CC(=O)Nc2nnc(CCCCc3ccc(NC(=O)Cc4ccccc4)nn3)s2)c1` [Compound 434], the IC50 in test [1] worked out at 5 nM; in test [2], 17 nM.

As for `O=C(CN1CCOCC1)Nc1cccc(CC(=O)Nc2nnc(CCCCc3ccc(NC(=O)Cc4ccccc4)nn3)s2)c1` [Compound 440], the IC50 in test [1] stood at 8 nM; in test [2], 31 nM.

Consider `NCCc1cccc(CC(=O)Nc2nnc(CCCCc3ccc(NC(=O)Cc4ccccc4)nn3)s2)c1` [Compound 441], for which the IC50 in test [1] worked out at 11 nM; in test [2] it was 180 nM.

As for `O=C(Cc1ccccc1)Nc1ccc(CCCCc2nnc(NC(=O)Cc3c(F)cccc3F)s2)nn1` [Compound 443], the IC50 in test [1] worked out at 11 nM; in test [2], 100 nM.

For the compound `CN(Cc1cccc(CC(=O)Nc2nnc(CCCCc3ccc(NC(=O)Cc4ccccc4)nn3)s2)c1)C(=O)Cc1ccccc1` [Compound 444], the IC50 in test [1] is 3 nM; in test [2], 8 nM.

Regarding `CC(=O)N(C)Cc1cccc(CC(=O)Nc2nnc(CCCCc3ccc(NC(=O)Cc4ccccc4)nn3)s2)c1` [Compound 445], the values for the IC50 in test [1] and in test [2] were 4 nM and 22 nM, respectively.

As for `O=C(Cc1cccc(Cl)c1)Nc1ccc(CCCCc2nnc(NC(=O)C(OC(=O)Cc3cccc(Cl)c3)c3cccc(Cl)c3)s2)nn1` (stereo not shown) [Compound 449], the IC50 in test [1] was determined as 110 nM; in test [2] it was 120 nM.

With `O=C(Cc1ccccc1)Nc1ccc(CCCCc2nnc(NC(=O)Cc3cccc(Oc4ccccc4)c3)s2)nn1` [Compound 450], the IC50 in test [1] was 6 nM; in test [2], 42 nM.

As for `CC(=O)Nc1cccc(CC(=O)Nc2nnc(CCCCc3ccc(NC(=O)Cc4ccccc4)nn3)s2)c1` [Compound 451], the IC50 worked out at 3 nM in test [1] and 56 nM in test [2].

For the compound `CS(=O)(=O)NCc1cccc(CC(=O)Nc2nnc(CCCCc3ccc(NC(=O)Cc4ccccc4)nn3)s2)c1` [Compound 452], the IC50 in test [1] is 4 nM; in test [2], 49 nM.

With `CCNC(=O)NCc1cccc(CC(=O)Nc2nnc(CCCCc3ccc(NC(=O)Cc4ccccc4)nn3)s2)c1` [Compound 453], the IC50 in test [1] came out at 3 nM; in test [2] it was 15 nM.

Turning to `O=C(Cc1ccccc1)Nc1ccc(CCCCc2nnc(NC(=O)Cc3cccc(CCNC(=O)c4ccccc4)c3)s2)nn1` [Compound 455], the values for the IC50 in test [1] and in test [2] were 3 nM and 12 nM, respectively.

Regarding `CCOC(=O)Cc1cccc(CC(=O)Nc2nnc(CCCCc3ccc(NC(=O)Cc4ccccc4)nn3)s2)c1` [Compound 456], the IC50 in test [1] was determined as 3 nM; in test [2], 24 nM.

For `CN(C)CC(=O)Nc1cccc(CC(=O)Nc2nnc(CCCCc3ccc(NC(=O)Cc4ccccc4)nn3)s2)c1` [Compound 457], the values for the IC50 in test [1] and in test [2] were 9 nM and 110 nM, respectively.

With `CC(=O)Nc1ccc(CCCCc2nnc(NC(=O)Cc3cccc(CNC(=O)c4ccccc4)c3)s2)nn1` [Compound 460], the results for the IC50 in test [1] and in test [2] were 5 nM and 31 nM, respectively.

On to `CC(=O)Nc1ccc(CCCCc2nnc(NC(=O)Cc3cccc(CNC(=O)Cc4ccccc4)c3)s2)nn1` [Compound 462], for which the IC50 in test [1] is 6 nM; in test [2], 53 nM.

With `Nc1ccc(CCCCc2nnc(NC(=O)Cc3cccc(CNC(=O)c4ccccc4)c3)s2)nn1` [Compound 463], the IC50 is 52 nM in test [1] and 960 nM in test [2].

Take `O=C(O)Cc1cccc(CC(=O)Nc2nnc(CCCCc3ccc(NC(=O)Cc4ccccc4)nn3)s2)c1` [Compound 465]: the IC50 in test [1] came to 6 nM; in test [2], 920 nM.

Consider `NCc1ccccc1CC(=O)Nc1nnc(CCCCc2ccc(NC(=O)Cc3ccccc3)nn2)s1` [Compound 466], for which the IC50 in test [1] was found to be 51 nM; in test [2], 1300 nM.

Take `COc1ccccc1CC(=O)Nc1nnc(CCCCc2ccc(NC(=O)Cc3ccccc3)nn2)s1` [Compound 469]: the IC50 in test [1] was found to be 7 nM; in test [2] it was 49 nM.

Consider `CC(C)CNC(=O)Cc1cccc(CC(=O)Nc2nnc(CCCCc3ccc(NC(=O)Cc4ccccc4)nn3)s2)c1` [Compound 470], for which the IC50 worked out at 3 nM in test [1] and 9 nM in test [2].

Consider `CC(C)(C)CNC(=O)Cc1cccc(CC(=O)Nc2nnc(CCCCc3ccc(NC(=O)Cc4ccccc4)nn3)s2)c1` [Compound 471], for which the values for the IC50 in test [1] and in test [2] were 3 nM and 6 nM, respectively.

Turning to `O=C(Cc1ccccc1)Nc1ccc(CCCCc2nnc(NC(=O)Cc3cccc(CC(=O)N4CCCC4)c3)s2)nn1` [Compound 473], the IC50 in test [1] turned out to be 2 nM; in test [2], 6 nM.

Regarding `O=C(Cc1ccccc1)Nc1ccc(CCCCc2nnc(NC(=O)Cc3cccc(CNC(=O)c4ccc(Br)nn4)c3)s2)nn1` [Compound 475], the IC50 was found to be 2 nM in test [1] and 3 nM in test [2].

For the compound `CC1(C)CCN(C(=O)Cc2cccc(CC(=O)Nc3nnc(CCCCc4ccc(NC(=O)Cc5ccccc5)nn4)s3)c2)C1` [Compound 481], the results for the IC50 in test [1] and in test [2] were 4 nM and 12 nM, respectively.

Consider `CC(C)(O)COc1cccc(CC(=O)Nc2nnc(CCCCc3ccc(NC(=O)Cc4ccccc4)nn3)s2)c1` [Compound 482], for which the results for the IC50 in test [1] and in test [2] were 7 nM and 38 nM, respectively.

Take `CCCCN(C)C(=O)Cc1cccc(CC(=O)Nc2nnc(CCCCc3ccc(NC(=O)Cc4ccccc4)nn3)s2)c1` [Compound 483]: the IC50 was 4 nM in test [1] and 9 nM in test [2].

For the compound `CCCN(C)C(=O)Cc1cccc(CC(=O)Nc2nnc(CCCCc3ccc(NC(=O)Cc4ccccc4)nn3)s2)c1` [Compound 484], the IC50 was found to be 3 nM in test [1] and 11 nM in test [2].

As for `CC(C)CN(C)C(=O)Cc1cccc(CC(=O)Nc2nnc(CCCCc3ccc(NC(=O)Cc4ccccc4)nn3)s2)c1` [Compound 485], the IC50 in test [1] came to 4 nM; in test [2], 12 nM.

Take `CCN(C)C(=O)Cc1cccc(CC(=O)Nc2nnc(CCCCc3ccc(NC(=O)Cc4ccccc4)nn3)s2)c1` [Compound 486]: the IC50 came to 4 nM in test [1] and 24 nM in test [2].

With `O=C(Cc1ccccc1)Nc1ccc(CCCCc2nnc(NC(=O)Cc3cccc(CC(=O)N4CCC4)c3)s2)nn1` [Compound 487], the IC50 worked out at 5 nM in test [1] and 42 nM in test [2].

For the compound `CCOc1cccc(CC(=O)Nc2nnc(CCCCc3ccc(NC(=O)Cc4ccccc4)nn3)s2)c1` [Compound 488], the IC50 in test [1] amounted to 320 nM; in test [2] it was 1900 nM.

With `CN1CCN(C(=O)c2cccc(CC(=O)Nc3nnc(CCCCc4ccc(NC(=O)Cc5ccccc5)nn4)s3)c2)CC1` [Compound 490], the IC50 in test [1] worked out at 11 nM; in test [2], 250 nM.

In the case of `CC(C)(C)NC(=O)Cc1cccc(CC(=O)Nc2nnc(CCCCc3ccc(NC(=O)Cc4ccccc4)nn3)s2)c1` [Compound 495], the IC50 in test [1] came out at 5 nM; in test [2], 14 nM.

In the case of `CCCNC(=O)Cc1cccc(CC(=O)Nc2nnc(CCCCc3ccc(NC(=O)Cc4ccccc4)nn3)s2)c1` [Compound 497], the IC50 was 4 nM in test [1] and 32 nM in test [2].

As for `CC(C)N(C)C(=O)Cc1cccc(CC(=O)Nc2nnc(CCCCc3ccc(NC(=O)Cc4ccccc4)nn3)s2)c1` [Compound 498], the IC50 in test [1] stood at 3 nM; in test [2], 17 nM.

Turning to `O=C(Cc1cccs1)Nc1ccc(CCCCc2nnc(NC(=O)Cc3ccccc3)s2)nn1` [Compound 499], the IC50 in test [1] was 10 nM; in test [2] it was 190 nM.

In the case of `O=C(Cc1cccc(Cn2cccn2)c1)Nc1ccc(CCCCc2nnc(NC(=O)Cc3ccccc3)s2)nn1` [Compound 500], the results for the IC50 in test [1] and in test [2] were 4 nM and 29 nM, respectively.

`CCOC(=O)Cc1cccc(CC(=O)Nc2ccc(CCCCc3nnc(NC(=O)Cc4ccccc4)s3)nn2)c1` [Compound 501]: the figures for the IC50 in test [1] and in test [2] were 4 nM and 69 nM, respectively.
